According to patent US6667387B1, “HCV core peptides” (priority 1992, dated 2003):
Ends that are not written are not given here.

Key:
[1] = ELISA with seronegative / negative control sera (specificity); type: binding, human
Method in brief: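 Specificity readout is OD at 450 nm (HRP goat anti-human Ig, TMB/H2O2, sulfuric acid stop), with ≥0.250 counted positive. Seronegative donor sera (typically 1:100, 1 h, 37° C) were applied to casein-blocked wells coated with peptide directly or via streptavidin capture of biotinylated peptide.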

[2] = system: antibodies in sera from HCV-seropositive donors; test: ELISA with HCV antibody-positive sera (biotinylated peptides on streptavidin- or avidin-coated plates, unbiotinylated peptides coated directly); type: binding, human
Method in brief: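 Peptides coated either directly at 2–5 or 3 μg/ml in carbonate buffer pH 9.6, or biotinylated at 1 μg/ml on streptavidin-coated wells (3 μg/ml). Plates casein-blocked, then human sera (1:100 or 1:20) incubated 1 h at 37° C. Bound antibody detected with HRP anti-human Ig/TMB, read as OD450.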

For IIPDREVLYREFDEMEECSQ, the “optical density (450 nm)” value ([1]; Table 4F, negative serum) was 0.052, the “optical density (450 nm)” value ([1]; Table 5, sample 1747 (negative), peptide concentration 0.01 micrograms per milliliter, listed as Unbiotinylated HCV peptide IX) was 0.045 and the “optical density (450 nm)” value ([1]; Table 5, sample 1747 (negative), peptide concentration 0.03 micrograms per milliliter, listed as Unbiotinylated HCV peptide IX) was 0.045. For the same sequence, the “optical density (450 nm)” value ([1]; Table 5, sample 1747 (negative), peptide concentration 0.1 micrograms per milliliter, listed as Unbiotinylated HCV peptide IX) was 0.045, the “optical density (450 nm)” value ([1]; Table 5, sample 1747 (negative), peptide concentration 0.3 micrograms per milliliter, listed as Unbiotinylated HCV peptide IX) was 0.044 and the “optical density (450 nm)” value ([1]; Table 5, sample 1747 (negative), peptide concentration 1.0 micrograms per milliliter, listed as Unbiotinylated HCV peptide IX) was 0.046. For the same sequence, the “optical density (450 nm)” value ([1]; Table 5, sample 1747 (negative), peptide concentration 3.0 micrograms per milliliter, listed as Unbiotinylated HCV peptide IX) was 0.046, the “optical density (450 nm)” value ([1]; Table 5, sample 1781 (negative), peptide concentration 0.01 micrograms per milliliter, listed as Unbiotinylated HCV peptide IX) was 0.051 and the “optical density (450 nm)” value ([1]; Table 5, sample 1781 (negative), peptide concentration 0.03 micrograms per milliliter, listed as Unbiotinylated HCV peptide IX) was 0.049. The “optical density (450 nm)” value ([1]; Table 5, sample 1781 (negative), peptide concentration 0.1 micrograms per milliliter, listed as Unbiotinylated HCV peptide IX) was 0.052, the “optical density (450 nm)” value ([1]; Table 5, sample 1781 (negative), peptide concentration 0.3 micrograms per milliliter) was 0.051 and the “optical density (450 nm)” value ([1]; Table 5, sample 1781 (negative), peptide concentration 1.0 micrograms per milliliter, listed as Unbiotinylated HCV peptide IX) was 0.052. For the same sequence, the “optical density (450 nm)” value ([1]; Table 5, sample 1781 (negative), peptide concentration 3.0 micrograms per milliliter) was 0.053, the “optical density (450 nm)” value ([2]; Table 4F, serum 8315, 20-fold dilution) was 2.614 and the “optical density (450 nm)” value ([2]; Table 4F, serum 8316, 20-fold dilution) was 0.133. The “optical density (450 nm)” value ([2]; Table 4F, serum 8317, 20-fold dilution) was 0.855, the “optical density (450 nm)” value ([2]; Table 4F, serum 8318, 20-fold dilution) was 1.965 and the “optical density (450 nm)” value ([2]; Table 4F, serum 8320, 20-fold dilution) was 0.721. The “optical density (450 nm)” value ([2]; Table 4F, serum 8321, 20-fold dilution) was 0.283, the “optical density (450 nm)” value ([2]; Table 4F, serum 8326, 20-fold dilution) was 2.219 and the “optical density (450 nm)” value ([2]; Table 5, sample 8242 (positive), peptide concentration 0.01 micrograms per milliliter, listed as Unbiotinylated HCV peptide IX) was 0.049. The “optical density (450 nm)” value ([2]; Table 5, sample 8242 (positive), peptide concentration 0.03 micrograms per milliliter, listed as Unbiotinylated HCV peptide IX) was 0.047, the “optical density (450 nm)” value ([2]; Table 5, sample 8242 (positive), peptide concentration 0.1 micrograms per milliliter, listed as Unbiotinylated HCV peptide IX) was 0.046 and the “optical density (450 nm)” value ([2]; Table 5, sample 8242 (positive), peptide concentration 0.3 micrograms per milliliter, listed as Unbiotinylated HCV peptide IX) was 0.048. For the same sequence, the “optical density (450 nm)” value ([2]; Table 5, sample 8242 (positive), peptide concentration 1.0 micrograms per milliliter, listed as Unbiotinylated HCV peptide IX) was 0.052, the “optical density (450 nm)” value ([2]; Table 5, sample 8242 (positive), peptide concentration 3.0 micrograms per milliliter, listed as Unbiotinylated HCV peptide IX) was 0.059 and the “optical density (450 nm)” value ([2]; Table 5, sample 8243 (positive), peptide concentration 0.01 micrograms per milliliter, listed as Unbiotinylated HCV peptide IX) was 0.054. For the same sequence, the “optical density (450 nm)” value ([2]; Table 5, sample 8243 (positive), peptide concentration 0.03 micrograms per milliliter, listed as Unbiotinylated HCV peptide IX) was 0.051, the “optical density (450 nm)” value ([2]; Table 5, sample 8243 (positive), peptide concentration 0.1 micrograms per milliliter, listed as Unbiotinylated HCV peptide IX) was 0.051 and the “optical density (450 nm)” value ([2]; Table 5, sample 8243 (positive), peptide concentration 0.3 micrograms per milliliter, listed as Unbiotinylated HCV peptide IX) was 0.051. The “optical density (450 nm)” value ([2]; Table 5, sample 8243 (positive), peptide concentration 1.0 micrograms per milliliter, listed as Unbiotinylated HCV peptide IX) was 0.053, the “optical density (450 nm)” value ([2]; Table 5, sample 8243 (positive), peptide concentration 3.0 micrograms per milliliter, listed as Unbiotinylated HCV peptide IX) was 0.063 and the “optical density (450 nm)” value ([2]; Table 5, sample 8320 (positive), peptide concentration 0.01 micrograms per milliliter, listed as Unbiotinylated HCV peptide IX) was 0.059. The “optical density (450 nm)” value ([2]; Table 5, sample 8320 (positive), peptide concentration 0.03 micrograms per milliliter, listed as Unbiotinylated HCV peptide IX) was 0.057, the “optical density (450 nm)” value ([2]; Table 5, sample 8320 (positive), peptide concentration 0.1 micrograms per milliliter, listed as Unbiotinylated HCV peptide IX) was 0.063 and the “optical density (450 nm)” value ([2]; Table 5, sample 8320 (positive), peptide concentration 0.3 micrograms per milliliter, listed as Unbiotinylated HCV peptide IX) was 0.122. For the same sequence, the “optical density (450 nm)” value ([2]; Table 5, sample 8320 (positive), peptide concentration 1.0 micrograms per milliliter, listed as Unbiotinylated HCV peptide IX) was 0.093, the “optical density (450 nm)” value ([2]; Table 5, sample 8320 (positive), peptide concentration 3.0 micrograms per milliliter, listed as Unbiotinylated HCV peptide IX) was 0.129 and the “optical density (450 nm)” value ([2]; Table 5, sample 8326 (positive), peptide concentration 0.01 micrograms per milliliter, listed as Unbiotinylated HCV peptide IX) was 0.049. For the same sequence, the “optical density (450 nm)” value ([2]; Table 5, sample 8326 (positive), peptide concentration 0.03 micrograms per milliliter, listed as Unbiotinylated HCV peptide IX) was 0.051, the “optical density (450 nm)” value ([2]; Table 5, sample 8326 (positive), peptide concentration 0.1 micrograms per milliliter, listed as Unbiotinylated HCV peptide IX) was 0.068 and the “optical density (450 nm)” value ([2]; Table 5, sample 8326 (positive), peptide concentration 0.3 micrograms per milliliter, listed as Unbiotinylated HCV peptide IX) was 0.078. For the same sequence, the “optical density (450 nm)” value ([2]; Table 5, sample 8326 (positive), peptide concentration 1.0 micrograms per milliliter, listed as Unbiotinylated HCV peptide IX) was 0.068 and the “optical density (450 nm)” value ([2]; Table 5, sample 8326 (positive), peptide concentration 3.0 micrograms per milliliter, listed as Unbiotinylated HCV peptide IX) was 0.084.
